Several values for one entry are separate records, joined by “and”; a condition that tells them apart may be missing. Equal values may be shown once. Entries after “also recorded” stand apart in the source; their conditions may differ. Where a name gives a salt, the structure may show the parent alone.
How the values were obtained:
Type in all cases: physicochemical
[1] = heat stress on a TGA, recovered material analyzed by XRPD; settings: held ~1 minute; for Post-XRPD (100° C.): heated on TGA to 100° C.; for Post-XRPD (150° C.): heated on TGA to 150° C.
Procedure: Samples of each form were heat stressed on a TGA. Samples were heated to the specified temperature and held at that temperature for approximately 1 minute. The material was then recovered from the TGA and analyzed by XRPD.

[2] = stressing at 40° C./75% relative humidity (stability study, XRPD); settings: for physical stability to stressing at 40° C./75% relative humidity (RH): 7 days
[3] = storage under ambient conditions (15° C. to 30° C.), form conversion; settings: temperature of from 15° C. to 30° C.
Procedure: For Free Base Form E, Free Base Form F, Free Base Form G, Free Base Form H, and Free Base Form J: two different instruments were used for characterizing the materials by XRPD. Samples were analysed dry with a Malvern Panalytical Xpert Pro diffractometer, except for Free Base Form F. Free Base Form F was analysed using a Malvern Panalytical Empyrean diffractometer.
Napsylate Salt Form C was analysed by XRPD.

[4] = estimated solubility by adding test solvent in aliquots to weighed solid, visual inspection
Procedure: Solubilities of the compound of Formula (I), free base, in a few solvents were estimated. The experiments were carried out by adding the test solvent in aliquots to weighed portions of solid. Whether dissolution had occurred was judged by visual inspection after addition of each solvent aliquot. Solubility numbers were calculated by dividing the weight of the sample by total amount of solvent used to dissolve the sample. The actual solubilities may be greater than the numbers calculated because of the use of solvent aliquots that were too large or because of slow dissolution rates. […] The solubility number is expressed as “greater than or equal to” if dissolution occurred on addition of the first solvent aliquot.
Solubilities of Fumarate Salt Form A are shown in Tables 8 and 9, in selected solvents and aqueous binary mixtures.
Solubilities of the compound of Formula (I), Fumarate Salt Form A, are shown in Tables 15 and 16, in selected solvents and aqueous binary mixtures.

[5] = water solubility, visual solubility estimation using pipet method; settings: thermodynamic from solid
[6] = dynamic vapor sorption (DVS) analysis, TA Instruments Q5000, 5 to 95% RH
Procedure: For Fumarate Salt Form A, Dynamic vapor sorption (DVS) analysis was carried out using a TA Instruments Q5000 Dynamic Vapor Sorption analyser. The instrument was calibrated with standard weights and a sodium bromide standard for humidity. Approximately 10-25 mg of sample was loaded into a metal coated quartz pan for analysis. The sample was analysed at 25° C. with a maximum equilibration time of one hour in 10% relative humidity (RH) steps from 5 to 95% RH (adsorption cycle) and from 95 to 5% RH (desorption cycle). The movement from one step to the next occurred either after satisfying the equilibrium criterion of 0.01% weight change, or when the equilibrium criterion was not met after one hour. The percent weight change values were then calculated.

[7] = initial physical stability evaluation at various relative humidity, room temperature, ~1 week (XRPD, Karl Fischer)
Procedure: In another one or more examples, Karl Fischer titrations (water content analysis) for fumarate salt(s) (e.g., Fumarate Salt Form A) were carried out using a Mettler-Toledo C20 Coulometric KF titrator. The instrument was calibrated using a Hydranal water standard containing 1% water. The titrant was a Hydranal methanol solution.
For initial physical stability evaluation, Fumarate Salt Form A was stored at various relative humidity conditions and room temperature for approximately 1 week (Table 14). Subsamples of Fumarate Salt Form A (approximately 90 mg) were weighed and placed inside relative humidity (RH) jars; after 1 week the samples were analyzed by XRPD and Karl Fisher analysis; the results are summarized in Table 14.

[8] = slurry of crystalline Fumarate Salt Form A in solvents, XRPD
Description: Regarding the use of crystalline Fumarate Salt Form A in polymorph screens, crystalline Fumarate Salt Form A as a starting material was mixed with different solvents under various conditions in attempts to generate polymorphs.

CN1CCN([C@@H]2CCCN(c3cnc(C(N)=O)c(Nc4ccc(C5CCN(CC6CCN(c7ccc(C(=O)N[C@H]8CCC(=O)NC8=O)nc7)CC6)CC5)cc4)n3)C2)C1=O [Free Base Form A]
Post-XRPD (100° C.) ([1]; listed as A): Free Base Form A

CN1CCN([C@@H]2CCCN(c3cnc(C(N)=O)c(Nc4ccc(C5CCN(CC6CCN(c7ccc(C(=O)N[C@H]8CCC(=O)NC8=O)nc7)CC6)CC5)cc4)n3)C2)C1=O [Free Base Form B]
Post-XRPD (150° C.) ([1]; listed as B): Free Base Form A

CN1CCN([C@@H]2CCCN(c3cnc(C(N)=O)c(Nc4ccc(C5CCN(CC6CCN(c7ccc(C(=O)N[C@H]8CCC(=O)NC8=O)nc7)CC6)CC5)cc4)n3)C2)C1=O [Free Base Form C]
Post-XRPD (150° C.) ([1]; listed as C): Free Base Form C

CN1CCN([C@@H]2CCCN(c3cnc(C(N)=O)c(Nc4ccc(C5CCN(CC6CCN(c7ccc(C(=O)N[C@H]8CCC(=O)NC8=O)nc7)CC6)CC5)cc4)n3)C2)C1=O [Free Base Form D]
Post-XRPD (100° C.) ([1]; listed as D): Free Base Form D

CN1CCN([C@@H]2CCCN(c3cnc(C(N)=O)c(Nc4ccc(C5CCN(CC6CCN(c7ccc(C(=O)N[C@H]8CCC(=O)NC8=O)nc7)CC6)CC5)cc4)n3)C2)C1=O [Free Base Form E]
physical stability to stressing at 40° C./75% relative humidity (RH) [2]: physically stable

CN1CCN([C@@H]2CCCN(c3cnc(C(N)=O)c(Nc4ccc(C5CCN(CC6CCN(c7ccc(C(=O)N[C@H]8CCC(=O)NC8=O)nc7)CC6)CC5)cc4)n3)C2)C1=O [Free Base Form F]
physical stability to stressing at 40° C./75% relative humidity (RH) [2]: not physically stable | physical stability to ambient conditions [3]: converted on drying at ambient conditions (including a temperature of from 15 °C to 30° C.) to Free Base Form J; also recorded: not physically stable

CN1CCN([C@@H]2CCCN(c3cnc(C(N)=O)c(Nc4ccc(C5CCN(CC6CCN(c7ccc(C(=O)N[C@H]8CCC(=O)NC8=O)nc7)CC6)CC5)cc4)n3)C2)C1=O [Free Base Form G]
physical stability to stressing at 40° C./75% relative humidity (RH) [2]: not physically stable

CN1CCN([C@@H]2CCCN(c3cnc(C(N)=O)c(Nc4ccc(C5CCN(CC6CCN(c7ccc(C(=O)N[C@H]8CCC(=O)NC8=O)nc7)CC6)CC5)cc4)n3)C2)C1=O [Free Base Form H]
physical stability to stressing at 40° C./75% relative humidity (RH) [2]: physically stable

CN1CCN([C@@H]2CCCN(c3cnc(C(N)=O)c(Nc4ccc(C5CCN(CC6CCN(c7ccc(C(=O)N[C@H]8CCC(=O)NC8=O)nc7)CC6)CC5)cc4)n3)C2)C1=O [Free Base Form J]
physical stability to stressing at 40° C./75% relative humidity (RH) [2]: physically stable

CN1CCN([C@@H]2CCCN(c3cnc(C(N)=O)c(Nc4ccc(C5CCN(CC6CCN(c7ccc(C(=O)N[C@H]8CCC(=O)NC8=O)nc7)CC6)CC5)cc4)n3)C2)C1=O.O=C(O)/C=C/C(=O)O [Fumarate Salt Form A]
solubility ([4]; acetonitrile/H2O (45/55), aw 0.9, solubility without temperature): >10 mg/mL | solubility ([4]; aqueous with cosolvent or surfactant or cyclodextrin, thermodynamic from solid, 1,4-dioxane/H2O (60/40), aw 1.0, solubility without temperature, read-out: Solubility): 10 mg/mL | solubility ([4]; aqueous with cosolvent or surfactant or cyclodextrin, thermodynamic from solid, 1,4-dioxane/H2O (95/5), aw 0.4, solubility without temperature, read-out: Solubility): 1 mg/mL | solubility ([4]; aqueous with cosolvent or surfactant or cyclodextrin, thermodynamic from solid, 2-propanol/H2O (80/20), aw 0.9, at 45° C., read-out: Solubility): > 1 mg/mL | solubility ([4]; aqueous with cosolvent or surfactant or cyclodextrin, thermodynamic from solid, 2-propanol/H2O (80/20), aw 0.9, solubility without temperature, read-out: Solubility): < 1 mg/mL | solubility ([4]; aqueous with cosolvent or surfactant or cyclodextrin, thermodynamic from solid, acetone/H2O (70/30), aw 0.85, solubility without temperature, read-out: Solubility): 6 mg/mL | solubility ([4]; aqueous with cosolvent or surfactant or cyclodextrin, thermodynamic from solid, acetonitrile/H2O (45/55), aw 0.9, solubility without temperature, read-out: Solubility): > 10 mg/mL | solubility ([4]; aqueous with cosolvent or surfactant or cyclodextrin, thermodynamic from solid, ethanol/H2O (70/30), aw 0.8, solubility without temperature, read-out: Solubility): 4 mg/mL | solubility ([4]; aqueous with cosolvent or surfactant or cyclodextrin, thermodynamic from solid, methanol/H2O (50/50), aw 0.75, solubility without temperature, read-out: Solubility): 2 mg/mL | solubility ([4]; aqueous with cosolvent or surfactant or cyclodextrin, thermodynamic from solid, tetrahydrofuran/H2O (80/20), aw 1, solubility without temperature, read-out: Solubility): > 9 mg/mL | solubility ([4]; organic solvent or mixture, thermodynamic from solid, 1,4-dioxane, at 60° C., read-out: Solubility): 1 mg/mL | solubility ([4]; organic solvent or mixture, thermodynamic from solid, acetone, at 60° C., read-out: Solubility): < 1 mg/mL | solubility ([4]; organic solvent or mixture, thermodynamic from solid, acetonitrile (ACN), at 60° C., read-out: Solubility): < 1 mg/mL | solubility ([4]; organic solvent or mixture, thermodynamic from solid, dichloromethane (DCM), at 60° C., read-out: Solubility): < 1 mg/mL | solubility ([4]; organic solvent or mixture, thermodynamic from solid, dimethylformamide (DMF), at RT, read-out: Solubility): > 50 mg/mL | solubility ([4]; organic solvent or mixture, thermodynamic from solid, ethanol (EtOH), at 60° C., read-out: Solubility): < 1 mg/mL | solubility ([4]; organic solvent or mixture, thermodynamic from solid, ethyl formate, at 60° C., read-out: Solubility): < 1 mg/mL | solubility ([4]; organic solvent or mixture, thermodynamic from solid, methanol (MeOH), at RT, read-out: Solubility): 1 mg/mL | solubility ([4]; organic solvent or mixture, thermodynamic from solid, methyl ethyl ketone (MEK), at 60° C., read-out: Solubility): < 1 mg/mL | solubility ([4]; organic solvent or mixture, thermodynamic from solid, tetrahydrofuran (THF), at 60° C., read-out: Solubility): < 1 mg/mL | solubility in aqueous solvents with high water activities (qualitative) ([4]; polymorph screening by salt formation in situ): soluble | solubility ([4]; thermodynamic from solid, water, at 60° C., read-out: Solubility): < 1 mg/mL | solubility [5]: < 0.3 mg/mL | DVS: water uptake in the range 40-75% RH [6]: approximately 0.5% | DVS: weight gain up to 95% RH ([6]; 25° C.): approximately 4% | DVS: hygroscopicity ([6]; 25° C., 5 to 95% RH): Moderately hygroscopic | Post-DVS XRPD ([6]; material after sorption/desorption cycle): Unchanged; also recorded: consistent with Fumarate Salt Form A exhibiting some peak shifting at higher angles; also recorded: Form A, high angle peak shifting | DVS: water absorbed over each of the RH ranges 5 to 35%; 35 to 85%; 85 to 95% RH ([6]; one third of the total uptake per range): Approximately 1% | DVS: loss from 95 to 5% RH ([6]; ~800-mg scale lot): 3% loss from 95 to 5% RH | DVS: loss upon drying at 5% RH ([6]; ~800-mg scale lot): 0% loss upon drying at 5% RH | KF-Oven % Water, Av ([7]; RT, 20% RH): 1.23% | KF-Oven % Water, single determinations ([7]; RT, 20% RH): 1.22% and 1.24% | KF-Oven water ([7]; RT, 20% RH): 0.7 mol/mol | XRPD Result ([7]; RT, 20% RH): Form A | KF-Oven % Water, Av ([7]; RT, 39% RH): 1.59% | KF-Oven % Water, single determinations ([7]; RT, 39% RH): 1.67% and 1.50% | KF-Oven water ([7]; RT, 39% RH): 0.9 mol/mol | XRPD Result ([7]; RT, 39% RH): Form A | KF-Oven % Water, Av ([7]; RT, 58% RH): 1.58% | KF-Oven % Water, single determinations ([7]; RT, 58% RH): 1.53% and 1.63% | KF-Oven water ([7]; RT, 58% RH): 0.9 mol/mol | XRPD Result ([7]; RT, 58% RH): Form A | KF-Oven % Water, Av ([7]; RT, 75% RH): 1.73% | KF-Oven % Water, single determinations ([7]; RT, 75% RH): 1.82% and 1.63% | KF-Oven water ([7]; RT, 75% RH): 0.9 mol/mol | XRPD Result ([7]; RT, 75% RH): Form A | KF-Oven % Water, Av ([7]; RT, 97% RH): 3.86% | KF-Oven % Water, single determinations ([7]; RT, 97% RH): 3.77% and 3.94% | KF-Oven water ([7]; RT, 97% RH): ~2.1 mol/mol | XRPD Result ([7]; RT, 97% RH): Form A | KF-Oven % Water, Av ([7]; RT, ~0% RH): 1.08% | KF-Oven % Water, single determinations ([7]; RT, ~0% RH): 1.14% and 1.01% | KF-Oven water ([7]; RT, ~0% RH): 0.6 mol/mol | KF-Oven water (moles) ([7]; RT, ~0% RH): approximately 0.6 moles | XRPD Result ([7]; RT, ~0% RH): Form A | water content in the relative humidity range 40-75% RH (Karl Fisher) ([7]; room temperature): approximately 0.9 moles | changes by XRPD after storage at various relative humidity conditions ([7]; room temperature, 0 to 97% RH): no changes were observed | stability upon slurry in aqueous binary mixtures with high water activities (XRPD) ([8]; 50° C. for 1 week): appeared to be stable | result of slurries in non-aqueous and some low water activity solvents (XRPD) ([8]; e.g., dioxane/water 95:5, aw 0.4): disordered/low crystalline materials

CN1CCN([C@@H]2CCCN(c3cnc(C(N)=O)c(Nc4ccc(C5CCN(CC6CCN(c7ccc(C(=O)N[C@H]8CCC(=O)NC8=O)nc7)CC6)CC5)cc4)n3)C2)C1=O [Napsylate Salt Form B]
physical stability to ambient conditions [3]: conversion to Napsylate Salt Form C

CN1CCN([C@@H]2CCCN(c3cnc(C(N)=O)c(Nc4ccc(C5CCN(CC6CCN(c7ccc(C(=O)N[C@H]8CCC(=O)NC8=O)nc7)CC6)CC5)cc4)n3)C2)C1=O [Succinate Salt Form B]
form after stressing at 40° C./75% relative humidity (RH) ([2]; 1 week (FIG. 72)): converted back to Succinate Salt Form A

— patent publication US20250136579A1, “SALTS AND FREE BASES OF BIFUNCTIONAL COMPOUND AND POLYMORPH FORMS THEREOF” (NURIX THERAPEUTICS, INC., priority 2023, published 2025)
